The results in this text go back to PubChem BioAssay AID330 (DTP/NCI, 2004).

The test has as its system P388 leukemia ip, CD2F1 mice, survival T/C. Kind of test: NCI In Vivo Anticancer Drug Screen. Data for tumor model P388 Leukemia (intraperitoneal) in CD2F1 (CDF1) mice. The following applies: endpoint: median survival time, higher = longer survival. In outline: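 Mice carrying the transplanted tumor received test compound or vehicle. Survival was recorded in each group, and the value is the treated-group measurement divided by that of the vehicle-treated control group.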

Where [1] appears, read: dose: 25.0 mg/kg/injection, schedule: Q01DX009 (ip), vehicle: Klucel (hydroxypropylcellulose) (HPC).
The mark [2] stands for this setting: dose: 50.0 mg/kg/injection, schedule: Q01DX009 (ip), vehicle: Klucel (hydroxypropylcellulose) (HPC).
The mark [3] stands for this setting: dose: 100.0 mg/kg/injection, schedule: Q01DX009 (ip), vehicle: Klucel (hydroxypropylcellulose) (HPC).
[4] abbreviates: dose: 100.0 mg/kg/injection, schedule: Q01DX009 (ip), vehicle: saline with Tween-80.
Setting [5] is: dose: 200.0 mg/kg/injection, schedule: Q01DX009 (ip), vehicle: saline with Tween-80.
Setting [6] is: dose: 50.0 mg/kg/injection, schedule: Q01DX009 (ip), vehicle: saline with Tween-80.
Setting [7] is: dose: 100.0 mg/kg/injection, schedule: Q01DX001 (ip), vehicle: saline with Tween-80.
Where [8] appears, read: dose: 200.0 mg/kg/injection, schedule: Q01DX001 (ip), vehicle: saline with Tween-80.
The mark [9] stands for this setting: dose: 400.0 mg/kg/injection, schedule: Q01DX001 (ip), vehicle: saline with Tween-80.
The mark [10] stands for this setting: dose: 50.0 mg/kg/injection, schedule: Q01DX005 (ip), vehicle: Klucel (hydroxypropylcellulose) (HPC).
Setting [11] is: dose: 100.0 mg/kg/injection, schedule: Q01DX005 (ip), vehicle: Klucel (hydroxypropylcellulose) (HPC).
[12] abbreviates: dose: 200.0 mg/kg/injection, schedule: Q01DX005 (ip), vehicle: Klucel (hydroxypropylcellulose) (HPC).
Setting [13] is: dose: 50.0 mg/kg/injection, schedule: Q01DX005 (ip), vehicle: saline with Tween-80.
Setting [14] is: dose: 100.0 mg/kg/injection, schedule: Q01DX005 (ip), vehicle: saline with Tween-80.
Setting [15] is: dose: 200.0 mg/kg/injection, schedule: Q01DX005 (ip), vehicle: saline with Tween-80.

Values joined by “and” are separate entries in the source; they are usually repeats but may differ in a detail not shown here. Equal values may be shown once. Inconclusive results and toxic doses are left out.

In the case of `CCN(CC)CCNC(=S)NNc1nc(C)ccc1[N+](=O)[O-]`, the T/C is 99 % of control (dose: 12.5 mg/kg/injection, schedule: Q01DX009 (ip), vehicle: Klucel (hydroxypropylcellulose) (HPC)); 95 % of control under setting [1]; 87 % of control and 97 % of control under setting [2].

`c1ccc(N2C3Sc4ncccc4C2Sc2ncccc23)cc1`: the T/C is, setting by setting: under setting [2], 104 % of control; under setting [3], 94 % of control; (dose: 200.0 mg/kg/injection, schedule: Q01DX009 (ip), vehicle: Klucel (hydroxypropylcellulose) (HPC)) 96 % of control.

Take `COc1ccc(C(O)C2c3c(cc4c(c3OC)OCO4)CCN2C)c(CO)c1OC` (stereo not drawn): the T/C runs as follows: (dose: 12.5 mg/kg/injection, schedule: Q01DX001 (ip), vehicle: Klucel (hydroxypropylcellulose) (HPC)) 88 % of control; (dose: 25.0 mg/kg/injection, schedule: Q01DX001 (ip), vehicle: Klucel (hydroxypropylcellulose) (HPC)) 88 % of control; (dose: 50.0 mg/kg/injection, schedule: Q01DX001 (ip), vehicle: Klucel (hydroxypropylcellulose) (HPC)) 94 % of control.

With `COc1cc2c(cc1OC)C1=C(CC2)C2CCCN2CC1` (stereo not drawn), the T/C was 104 % of control (dose: 12.5 mg/kg/injection, schedule: Q04DX003 (ip), vehicle: saline) and 100 % of control (dose: 25.0 mg/kg/injection, schedule: Q04DX003 (ip), vehicle: saline).

`CC[C@H](CC[C@@H](C)C1CC[C@H]2[C@@H]3CC=C4C[C@@H](OP(=O)(N5CC5)N5CC5)CC[C@]4(C)[C@H]3CC[C@]12C)C(C)C` (stereo partly drawn): the T/C was 152 % of control under setting [4]; 163 % of control and 171 % of control under setting [5]; 98 % of control (dose: 400.0 mg/kg/injection, schedule: Q01DX009 (ip), vehicle: saline with Tween-80).

`OCC(CO)(CO)NCCCNC(CO)(CO)CO`: the T/C reads like this: (dose: 60.0 mg/kg/injection, schedule: Q01DX005 (ip), vehicle: saline) 98 % of control; (dose: 120.0 mg/kg/injection, schedule: Q01DX005 (ip), vehicle: saline) 101 % of control; (dose: 240.0 mg/kg/injection, schedule: Q01DX005 (ip), vehicle: saline) 97 % of control.

Take `CN=C(c1ccc(NC(=O)c2ccc(C(=O)Nc3ccc(C(=NC)N(C)C)cc3)c(Cl)c2)cc1)N(C)C`: the T/C (dose: 0.75 mg/kg/injection, schedule: Q01DX005 (ip), vehicle: saline) is 95 % of control; the T/C (dose: 1.5 mg/kg/injection, schedule: Q01DX005 (ip), vehicle: saline) was 96 % of control; the T/C (dose: 3.0 mg/kg/injection, schedule: Q01DX005 (ip), vehicle: saline) is 92 % of control; the T/C (dose: 3.12 mg/kg/injection, schedule: Q01DX005 (ip), vehicle: saline) is 100 % of control.

Regarding `COc1ccc(CC#N)cc1OC`, the T/C reads like this: (dose: 3.75 mg/kg/injection, schedule: Q01DX009 (ip), vehicle: saline with Tween-80) 90 % of control; (dose: 7.5 mg/kg/injection, schedule: Q01DX009 (ip), vehicle: saline with Tween-80) 90 % of control; (dose: 15.0 mg/kg/injection, schedule: Q01DX009 (ip), vehicle: saline with Tween-80) 90 % of control.

Consider `c1ccc(-c2cc3ccccc3[nH]2)cc1`, for which the T/C is, setting by setting: under setting [6], 90 % of control; under setting [4], 104 % of control; under setting [5], 102 % of control.

As to `O=S(=O)(/C=C/c1ccccc1)OCCCl`, the T/C runs as follows: under setting [6], 103 % of control; under setting [4], 107 % of control; under setting [5], 107 % of control.

In the case of `Cc1oc2c(c(=O)c1C)CN(Cc1ccccc1)CC2`, the T/C is, setting by setting: under setting [7], 100 % of control; under setting [8], 100 % of control; under setting [9], 99 % of control.

Take `CCNc1cc(N)[n+](CC)c2n[nH]c(N)c12`: the T/C is 112 % of control (dose: 50.0 mg/kg/injection, schedule: Q01DX005 (ip), vehicle: saline) and 111 % of control (dose: 100.0 mg/kg/injection, schedule: Q01DX005 (ip), vehicle: saline).

Turning to `CCOCCOC(=O)Nc1c(Cl)cccc1Cl`, the T/C was 101 % of control (dose: 60.0 mg/kg/injection, schedule: Q01DX005 (ip), vehicle: saline with Tween-80); 96 % of control (dose: 120.0 mg/kg/injection, schedule: Q01DX005 (ip), vehicle: saline with Tween-80); 95 % of control (dose: 240.0 mg/kg/injection, schedule: Q01DX005 (ip), vehicle: saline with Tween-80).

As to `NC(=Nc1ccccc1)SCCCCCCSC(N)=Nc1ccccc1`, the T/C was 100 % of control under setting [1], 102 % of control under setting [2] and 100 % of control under setting [3].

For `O=C1OC(=O)C2CC3C(CC12)C1(Cl)C(Cl)=C(Cl)C3(Cl)C1(Cl)Cl` (stereo not drawn), the T/C by setting is: under setting [10], 104 % of control; under setting [11], 100 % of control; under setting [12], 107 % of control.

As for `COCCN[C@@H]1C[C@@](C)(O)Cc2cc3c(c(O)c21)C(=O)c1c(O)cc2c(c1C3=O)O[C@H]1O[C@]2(C)[C@@H](O)[C@H](N(C)C)[C@H]1O`, the T/C (dose: 2.5 mg/kg/injection, schedule: Q01DX009 (ip), vehicle: other) was 105 % of control; the T/C (dose: 5.0 mg/kg/injection, schedule: Q01DX009 (ip), vehicle: other) was 105 % of control; the T/C (dose: 7.5 mg/kg/injection, schedule: Q01DX009 (ip), vehicle: other) was 120 % of control; the T/C (dose: 10.0 mg/kg/injection, schedule: Q01DX009 (ip), vehicle: other) is 111 % of control; the T/C (dose: 60.0 mg/kg/injection, schedule: Q01DX009 (ip), vehicle: other) was 154 % of control.

On to `FC(F)(F)c1cc(-n2c(-c3ccccc3)nc(=S)c3c2CCCC3)cc(C(F)(F)F)c1`, for which the T/C was 100 % of control under setting [6], 95 % of control under setting [4] and 94 % of control under setting [5].

`NC(CCCOS(=O)(=O)O)Cc1ccc2ccccc2c1` (stereo not drawn): the T/C was 100 % of control (dose: 100.0 mg/kg/injection, schedule: Q04DX003 (ip), vehicle: Klucel (hydroxypropylcellulose) (HPC)); 100 % of control (dose: 200.0 mg/kg/injection, schedule: Q04DX003 (ip), vehicle: Klucel (hydroxypropylcellulose) (HPC)); 94 % of control (dose: 400.0 mg/kg/injection, schedule: Q04DX003 (ip), vehicle: Klucel (hydroxypropylcellulose) (HPC)).

On to `O=[N+]([O-])c1ccc(N/N=C(/C(=N/Nc2ccc([N+](=O)[O-])cc2)c2ccccc2)c2ccccc2)cc1`, for which the T/C was 87 % of control (dose: 25.0 mg/kg/injection, schedule: Q01DX009 (ip), vehicle: other); 89 % of control (dose: 50.0 mg/kg/injection, schedule: Q01DX009 (ip), vehicle: other); 93 % of control (dose: 100.0 mg/kg/injection, schedule: Q01DX009 (ip), vehicle: other); 90 % of control (dose: 100.0 mg/kg/injection, schedule: Q01DX009 (ip), vehicle: saline sonified); 93 % of control (dose: 200.0 mg/kg/injection, schedule: Q01DX009 (ip), vehicle: other); 86 % of control (dose: 200.0 mg/kg/injection, schedule: Q01DX009 (ip), vehicle: saline sonified). Also, the T/C is 93 % of control (dose: 400.0 mg/kg/injection, schedule: Q01DX009 (ip), vehicle: other) and 90 % of control (dose: 400.0 mg/kg/injection, schedule: Q01DX009 (ip), vehicle: saline sonified).

Consider `CCC1(CC)OC(=O)C1Cl` (stereo not drawn), for which the T/C under setting [13] was 98 % of control, the T/C under setting [14] was 113 % of control and the T/C under setting [15] was 118 % of control.

Consider `CCOC(=O)C1(O)CC(O)C(O)C(O)C1OC` (stereo not drawn), for which the T/C was 94 % of control under setting [7], 92 % of control under setting [8] and 94 % of control under setting [9].

For `CC(=O)c1c(OCC(O)CN(CCO)CCO)ccc2c(C)cc(=O)oc12` (stereo not drawn), the T/C was 107 % of control under setting [13], 104 % of control under setting [14] and 108 % of control under setting [15].

Turning to `O=C1c2ccccc2S(=O)(=O)N1Cc1ccccc1CN1C(=O)c2ccccc2S1(=O)=O`, the T/C runs as follows: under setting [10], 92 % of control; under setting [11], 89 % of control; under setting [12], 89 % of control.

Consider `N#Cc1c(-c2cccn(-c3ccccc3)c2=O)cc(-c2ccccc2)[nH]c1=O`, for which the T/C is 88 % of control under setting [10], 89 % of control under setting [11] and 110 % of control under setting [12].
